# Data published in article PMC12974487, “Inhibition of FicD-mediated AMPylation and deAMPylation by isoprenoid diphosphates” (Proceedings of the National Academy of Sciences of the …, 2026).
# Changes are numbered by the printed parent chain.
# How the values were obtained:
# FicD^R371S = target: T1, FicD^R371S (Homo sapiens, UniProt Q9BVA6, R371S); assay: AMPylation of Δ26hBiP^T229A by pathogenic variant FicD^R371S; format: biochemical; conditions: indicated concentrations of FPP
# T1 construct: Wild-type FicD (residues 105-458) and all mutants were expressed as N-terminal 6xHis-Sumo fusions; 6xHis-Sumo (N, cleaved yes); made in house; host or cells: Rosetta(DE3) E. coli
# T1 sequence (Q9BVA6 105-458 R371S): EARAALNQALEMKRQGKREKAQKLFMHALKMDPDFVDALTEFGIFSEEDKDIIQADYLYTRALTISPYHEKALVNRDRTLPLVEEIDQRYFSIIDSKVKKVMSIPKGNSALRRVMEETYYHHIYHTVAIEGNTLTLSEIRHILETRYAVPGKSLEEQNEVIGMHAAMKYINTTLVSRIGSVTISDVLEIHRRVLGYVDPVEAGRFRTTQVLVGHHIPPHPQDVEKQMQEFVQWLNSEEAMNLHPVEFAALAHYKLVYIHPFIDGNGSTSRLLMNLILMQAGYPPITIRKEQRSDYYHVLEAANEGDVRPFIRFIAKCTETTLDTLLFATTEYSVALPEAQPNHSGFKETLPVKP
# Text: Fig. 5. Crystal structure of FPP inhibitor bound to FicD active site. […] FPP (cyan stick) and Mg^2+ (cyan sphere) in the pocket of FicD shown as APBS electrostatic surface with positive areas in blue, negative in red, and neutral in white (contour level: ±5 kBT/e) (Right). […] (C–E) AMPylation assays of Δ26hBiP^T229A in the presence of the indicated concentration of FPP using the pathogenic human variants (C) FicD^R371S, (D) FicD^R374H and (E) FicD^R374C. AMPylated BiP and Fic were quantified by immunodetection, and total BiP was quantified by CBB. […]
# Isothermal Titration Calorimetry
# Proteins were dialyzed against 25mM HEPES pH 7.4/100mM KCl/10% glycerol prior to titration. […]
# MgCl2 was added to […]
# proteins to a final concentration of 4mM. ITC experiments were performed in a Micro-Cal PEAQ-ITC (Malvern Panalytical, Worcestershire, UK) calorimeter with a stirred 206.2 μL reaction cell held at 20 °C. 250μM FPP was titrated into 25uM Δ104hFicL258D with 750rpm stirring. The first injection was 0.5 μL, followed by twenty 1.9 μL injections. […]
# Thermogram and binding figures were plotted in
# For AMPylation assays with FicD and BiP, Δ104FicDWT and Δ26hBiPT229A were combined at a ratio of 1:80 in buffer containing 25mM HEPES pH 7.4, 100mM KCl, 5mM MgCl2, 500μM ATP, 1mM DTT, and small molecule where indicated. Assays with Δ104FicDWT were incubated for 1 hour. […]
# FicD^R374H = target: T2, FicD^R374H (Homo sapiens, UniProt Q9BVA6, R374H); assay: DSF with FicD^R374H variant; format: binding
# T2 construct: Wild-type FicD (residues 105-458) and all mutants were expressed as N-terminal 6xHis-Sumo fusions; 6xHis-Sumo (N, cleaved yes); made in house; host or cells: Rosetta(DE3) E. coli
# T2 sequence (Q9BVA6 105-458 R374H): T1 sequence (Q9BVA6 105-458 R371S) with S267R, R270H
structure (smiles),measurement,setting,value
"CC(C)=CCC/C(C)=C/CC/C(C)=C/COP(=O)(O)OP(=O)(O)O [FPP, farnesyl-pyrophosphate]",FPP inhibition of FicD^R371S AMPylation activity,FicD^R371S,total loss of FPP inhibition
same,binding to R374H variant by DSF (melting curve shift),FicD^R374H; absence of Mg2+,caused shifts in the melting curves
same,binding to R374H variant by DSF (melting curve shift),FicD^R374H; addition of Mg2+,enhanced the binding
